Usually Cmax stands for the peak of the concentration-time curve. Broadly, the Tmax is the time from dosing to the highest level.

Here are results for seven compounds from patent US20250129012A1, “ANTI-INFLAMMATORY AND ANALGESIC COMPOUNDS AND USE THEREOF” (JIANGSU ATOM BIOSCIENCE AND PHARMACEUTICAL CO., LTD., priority 2021, published 2025).

Read-outs that look alike come from different tables or passages of the source. Marks after values point to notes of the source that are not given here.

Data set [1] is described as follows: In vivo pharmacokinetics in SD rats. The procedure: Compound stock solution preparation: an appropriate amount of solid powder of the compounds were weighed separately, a certain amount of DMSO was added and 20 mg/mL of stock solution was obtained under vortex ultrasound.
Preparation of test compound for gavage: an appropriate amount of compound stock solution was taken by pipette, a certain amount of Solutol HS15 solution was added, the mixture was vortexed for 1 minute, then a certain amount of saline was added, and 1 mg/mL of solution was obtained after mixing well.
Preparation of test compounds for intravenous injection: an appropriate amount of compound stock solution was taken by pipette separately, a certain amount of Solutol HS15 solution was added, the mixture was vortexed for 1 minute, then a certain amount of physiological saline was added and a solution of 0.5 mg/mL was obtained after mixing well.
The animals were fasted overnight before administration by gavage, and food was given 4 hours after administration, during which they were free to drink. Two groups were set for each test compound, intravenous injection group and oral administration group, and the dose and mode of administration were shown in Table 12 below.
The blood samples were centrifuged at 4° C. for 5 min at 2,000 g to separate the plasma. The plasma samples were analyzed by LC/MS/MS to detect the concentration of each test compound in the plasma samples.
The parameters related to the […] were obtained by calculations with WinNonlin® Professional software.

The subject of data set [2] is gouty arthritis rats (sodium urate, right ankle and knee joint cavities). Put plainly: Pharmacodynamics experiment B on gouty arthritis rats: gait score. The format is in vivo, SD rats. To be noted: for Gait Score: dose 0.6 mg/kg gavage, mean; for Gait versus model group, in words: compounds 0.6 mg/kg, colchicine 0.6 and 1.2 mg/kg. Here is the method:
(§1) Compounds 12, 16, 19, 30, 34, 36, 38, 40, 44, 48, 49, 52, 58, 69, 83, 98, 102, 119, 121, and 122 were prepared by grinding with 0.5% CMC-Na prior to administration and formulated into suspensions of appropriate concentration (0.12 mg/mL) for gavage, with an administered dose of 0.5 mL/100 g.
(§2) 240 SD rats, males, were acclimatized for one week and weighed 180-220 g. […] The dose of each compound group was 0.6 mg/kg. The compounds in each group were prepared into the corresponding concentration suspension, and the volume of administration was 10 mL/kg.
(§3) 250 mg of sodium urate were added to 9 mL of saline, and 1 mL of Tween-80 solution was added, the resulting mixture was heated and stirred to formulate 10 mL of sodium urate solution. The rats were grasped and fixed, and 0.2 mL of sodium urate solution was injected into the right ankle and knee joint cavities respectively to establish gouty arthritis rat model.
(§4) Before modeling, positive drug and tested compounds were pre-administered for 7 days, once a day, and modeling was performed on day 8, and drug administration by gavage continued for 3 days after modeling.
Gait was scored according to the modified gait grading criteria introduced by Coderre et al. The gait of each rat was observed before and 2 h, 4 h, 8 h, 10 h, 24 h and 48 h after modeling and graded scoring was performed. The gait grading criteria were as follows: 0 point, normal walking; 1 point, slight lameness, the lower limbs were slightly bent; 2 points: moderate lameness, the lower limbs just touched the ground; 3 points, severe lameness, the lower limbs left the ground, and walked on three feet. The mean score of each group was calculated and compared with that of the model group.
(§5) Each experimental data was expressed as the mean, and intergroup comparisons were examined for significance using the ANOVA-Dunnett T-test, with P<0.05 as the significance indicator.

Data set [3] has the same test system. Kind of data set: Pharmacodynamics experiment B on gouty arthritis rats: ankle swelling rate. The class given is in vivo, SD rats. The conditions noted are these: Rattus norvegicus, po, read-out: Swelling rate (ankle). The procedure:
as §1, §2, §3, §4
Before modeling and 2 h, 4 h, 8 h, 10 h, 24 h and 48 h after modeling, the circumference of the right ankle joint was measured using a soft ruler or the volume change at the ankle was measured (volumetric method), and the swelling degree and swelling rate of ankle joint were calculated:
Swelling degree (mm)=measured circumference (mm)−baseline circumference (mm)
Swelling rate (%)=swelling degree (mm)/baseline circumference (mm)×100%
as §5

Where [4] appears, read: Sprague-Dawley, rat, in vivo, 10 mg/kg.
Where [5] appears, read: Sprague-Dawley, rat, in vivo, iv, 1 mg/kg.
The mark [6] stands for this setting: Sprague-Dawley, rat, in vivo, po, 10 mg/kg.

In data set [1] (setting [4]), `[2H]C([2H])([2H])Oc1cc2c(c(OC)c1OC([2H])([2H])[2H])-c1ccc(C(=O)NC)c(=O)cc1[C@@H](NC(C)=O)CC2` [Compound 124, (S)-7-acetamido-1-methoxy-2,3-bis(trideuteromethoxy)-N-methyl-9-oxo-5,6,7,9-tetrahydrobenzo[a] heptalen-10-carboxamide] came in with an F of 44.7%. In data set [1] (setting [5]), this compound had an AUC(0-inf) of 756 ng·h/mL, an MRT inf of 39.1 min, a Vd of 0.864 L/kg and a clearance of 22.3 mL/min/kg. In data set [1] (setting [5]), this compound showed a half-life of 38.6 min. In addition, in data set [1] (setting [6]), the AUC(0-inf) is 3380 ng·h/mL, the maximum concentration (Cmax) is 2260 ng/mL, the MRT inf is 103 min and the Tmax was found to be 20 min. Besides, the half-life in data set [1] (setting [6]) was 82.8 min.
`CNC(=O)c1ccc2c(cc1=O)[C@@H](NC(C)=O)CCc1cc3c(c(OC)c1-2)OCO3` [Compound 125, (S)-6-acetamido-13-methoxy-N-methyl-4-oxo-4,6,7,8-tetrahydroheptalen[1′,2′:4,5]benzo[1,2-d][1,3]dioxolane-3-carboxamide]: the F in data set [1] (Gavage - 10 mg/kg, calculated by AUCINF) is 93.0%. Also, the AUC(0-inf) was 5460 ng·h/mL in data set [1] (Sprague-Dawley, rat, in vivo, po, Gavage - 10 mg/kg, read-out: AUCINF) and 587 ng·h/mL in data set [1] (Sprague-Dawley, rat, in vivo, Intravenous injection - 1 mg/kg, read-out: AUCINF). Moreover, the Cmax in data set [1] (Sprague-Dawley, rat, in vivo, po, Gavage - 10 mg/kg, read-out: Cmax) stood at 4150 ng/mL. Also, the MRT inf in data set [1] (Sprague-Dawley, rat, in vivo, po, Gavage - 10 mg/kg, read-out: MRTINF) was found to be 108 min; in data set [1] (Sprague-Dawley, rat, in vivo, Intravenous injection - 1 mg/kg, read-out: MRTINF), 40.5 min. In addition, the Tmax in data set [1] (Sprague-Dawley, rat, in vivo, po, Gavage - 10 mg/kg, read-out: Tmax) turned out to be 15 min. The half-life was 200 min in data set [1] (Sprague-Dawley, rat, in vivo, po, Gavage - 10 mg/kg, read-out: t1/2 (converted)) and 71.4 min in data set [1] (Sprague-Dawley, rat, in vivo, Intravenous injection - 1 mg/kg, read-out: t1/2 (converted)). Moreover, the clearance in data set [1] (Sprague-Dawley, rat, in vivo, Intravenous injection - 1 mg/kg, read-out: CL (converted)) is 28.5 mL/min/kg. In addition, the Vd in data set [1] (Sprague-Dawley, rat, in vivo, Intravenous injection - 1 mg/kg, read-out: VSS) came out at 1.15 L/kg.
`[2H]C([2H])([2H])NC(=O)c1ccc2c(cc1=O)[C@@H](NC(C)=O)CCc1cc(OC)c(OC)c(OC)c1-2` [Compound 56, (S)-7-acetamido-1,2,3-trimethoxy-N-(trideuterio)methyl-9-oxo-5,6,7,9-tetrahydrobenzo[a]heptalen-10-carboxamide] gave a F in data set [1] (setting [4]) of 62.3%. In data set [1] (setting [5]), this compound showed an AUC(0-inf) of 597 ng·h/mL, an MRT inf of 34.9 min, a Vd of 0.977 L/kg and a clearance of 28.7 mL/min/kg. The half-life in data set [1] (setting [5]) is 35.4 min. Moreover, in data set [1] (setting [6]), the AUC(0-inf) is 3720 ng·h/mL, the maximum concentration (Cmax) turned out to be 1640 ng/mL, the MRT inf was found to be 132 min and the time to peak (Tmax) is 25 min. This compound showed a half-life in data set [1] (setting [6]) of 76.2 min.
`COc1cc2c(c(OC)c1OC)-c1ccc(N3CCCC3=O)c(=O)cc1[C@@H](NC(C)=O)CC2` [Compound 52, (S)—N-[1,2,3-trimethoxy-9-oxo-10-(2-oxo-pyrrolidin-1-yl)-5,6,7,9-tetrahydrobenzo[a]heptalen-7-yl]acetamide]: the “Gait Score” value in data set [2] (2 h) is on record as 0; in data set [2] (4 h) it was 0; in data set [2] (8 h) it was 0*; in data set [2] (10 h) it was 0*; in data set [2] (24 h) it was 0; in data set [2] (48 h), 0. Also, the “Gait versus model group, in words” value in data set [2] is recorded as “significant improvement in gait occurred at different time points”. For the same compound, the change in vivo at 0.6 mg/kg in data set [3] (2 h) is 11%; in data set [3] (4 h), 9.83%; in data set [3] (8 h), 11.8%; in data set [3] (10 h), 30.2%; in data set [3] (24 h), 22%; in data set [3] (48 h), 7.88%.
Turning to `COc1cc2c(c(OC)c1OC)-c1ccc(OCC(F)(F)F)c(=O)cc1[C@@H](NC(C)=O)CC2` [Compound 36, (S)—N-{1,2,3-trimethoxy-9-oxo-10-(2,2,2-trifluoroethoxy)-5,6,7,9-tetrahydrobenzo[a]heptalen-7-yl}acetamide], the “Gait Score” value in data set [2] (2 h) is listed as 0; in data set [2] (4 h), 0; in data set [2] (8 h) it was 0*; in data set [2] (10 h), 0*; in data set [2] (24 h) it was 0.2; in data set [2] (48 h), 0.1. The “Gait versus model group, in words” value in data set [2] was “significant improvement in gait occurred at different time points”. For the same compound, the change in vivo at 0.6 mg/kg was -3.59% in data set [3] (2 h); 2.37% in data set [3] (4 h); 2.62% in data set [3] (8 h); 10.4% in data set [3] (10 h); 10% in data set [3] (24 h); -2.54% in data set [3] (48 h).
Turning to `COc1cc2c(c(OC)c1OC)-c1cc(C)c(O[C@H]3CCOC3)c(=O)cc1[C@@H](NC(C)=O)CC2` [Compound 30, N—{(S)-1,2,3-trimethoxy-11-methyl-9-oxo-10-{[(S)-tetrahydrofuran-3-yl]oxy}-5,6,7,9-tetrahydrobenzo[a]heptalen-7-yl}acetamide], the “Gait Score” value in data set [2] (2 h) is given as 0; in data set [2] (4 h) it was 0; in data set [2] (8 h), 0*; in data set [2] (10 h), 0*; in data set [2] (24 h) it was 0.3; in data set [2] (48 h), 0. Besides, in data set [2], the “Gait versus model group, in words” value is “significant improvement in gait occurred at different time points”. Besides, the change in vivo at 0.6 mg/kg in data set [3] (2 h) was -4.04%; in data set [3] (4 h) it was 1.2%; in data set [3] (8 h), 0.57%; in data set [3] (10 h) it was 6.69%; in data set [3] (24 h), 9.77%; in data set [3] (48 h) it was -1.34%.
For `COc1cc2c(c(OC)c1OC)-c1ccc(C(=O)N3CCOCC3)c(=O)cc1[C@@H](NC(C)=O)CC2` [Compound 83, (S)—N-{1,2,3-trimethoxy-10-(morpholine-4-carbonyl)-9-oxo-5,6,7,9-tetrahydrobenzo[a]heptalen-7-yl}acetamide], the “Gait Score” value in data set [2] (2 h) is recorded as 0; in data set [2] (4 h), 0; in data set [2] (8 h), 0*; in data set [2] (10 h) it was 0*; in data set [2] (24 h), 0; in data set [2] (48 h), 0. The “Gait versus model group, in words” value in data set [2] was “significant improvement in gait occurred at different time points”. In addition, the change in vivo at 0.6 mg/kg in data set [3] (2 h) came to 8.31%; in data set [3] (4 h) it was 10.4%; in data set [3] (8 h), 16.6%; in data set [3] (10 h), 21.1%; in data set [3] (24 h), 26.3%; in data set [3] (48 h) it was 15.3%.
